Results published in article PMC7737769, “Pharmacological inhibition of syntenin PDZ2 domain impairs breast cancer cell activities and exosome loading with syndecan and EpCAM cargo” (Journal of Extracellular Vesicles, 2020).

Columns and labels:
GRASP55‐PDZ tandem = system: T1, GRASP55‐PDZ tandem; experiment: Surface plasmon resonance (BIAcore), GRASP55 PDZ tandem; type: binding, human; conditions: 50µM ‐1000 µM
T1 construct: made in house; host or cells: Biotin XCell F' E. coli cells
Method: All SPR experiments were conducted with a BIAcore T200 instrument (GE Healthcare), at 25°C. A total of 8000 resonance units (RU) of biotinylated ligands (N‐terminal 6xHis tagged biotinylated syntenin tandem, syntenin tandem with C terminus, GRASP55 tandem or GST as control) were immobilized on a streptavidin‐sensor chip (GE Healthcare). Analytes (C58 and SyntOFF compounds) were perfused at 30 µl per min in running buffer (10 mM HEPES pH 7.4, 150 mM NaCl, 0.005% Tween20) at different concentrations. The reference channel was N‐terminal 6xHis tagged biotinylated GST protein. The injection time was 240 s, long enough for the sensorgrams to reach equilibrium, and the dissociation time was 240 s. To carry out these SPR experiments, we employed the method known as ‘single‐cycle kinetics’ described in 2006 by Karlsson and co‐workers (Karlsson, Katsamba, Nordin, Pol, & Myszka, 2006). It consists in injecting the analyte at increasing concentrations, without regeneration steps between each sample injection to avoid that folded‐proteins can be damaged after regeneration steps. Equilibrium dissociation constants (KD) were calculated by fitting the data to a simple Langmuir binding isotherm using GraphPad Prism. For determination of the apparent KD, signals obtained at equilibrium were plotted as a function of compound concentration. […]

MCF‐7 SyntKO cells [1] = experiment: Cancer cell viability (Annexin V/7-AAD flow cytometry), MCF-7 SyntKO; type: cell-based; conditions: concentrations up to 100 µM, 48 h
Method: The effects of the compounds C58 and SyntOFF were tested both on MCF‐7 and MCF‐7 SyntKO cells. Briefly, the cells were treated with increasing concentrations of the compounds for 48 h and early/late apoptosis was measured by using the FITC Annexin V apoptosis detection kit with 7‐AAD (Biolegend, San Diego, CA, USA) according to the manufacturer. Annexin V positive but 7‐AAD negative (early apoptotic cells) and Annexin V positive and 7‐AAD positive (late stage apoptosis) was determined by using FACS LSRII flow cytometer (BD Biosciences) and data were analysed with Flowjo software (Tree Star).

MCF‐7 SyntKO cells [2] = experiment: Mammosphere formation assay, MCF-7 SyntKO; type: cell-based; conditions: 100 µM
Method: MCF‐7 and MCF‐7 SyntKO cells were treated with increasing concentrations of compounds C58, SyntOFF (50‐100µM) or DMSO 0.2% as control. After 24 h, cells were trypsinized, re‐suspended in normal growth media and washed three times in PBS to remove serum. Cell concentration was determined using the LUNA-FL Automated Fluorescence Cell Counter (Logos Biosystem) and cells were then seeded at 1000 cells/ml in 6‐well Ultra low Adherence plates (Corning Inc., Corning, NY) in MEBM medium (Lonza) supplemented with 5 µg/ml insulin (Sigma‐Aldrich), 20 ng/ml recombinant epidermal growth factor (Sigma‐Aldrich), 1X of B27 supplement (Invitrogen, Carlsbad, CA, USA), 0.5 µg/ml hydrocortisone (Sigma‐Aldrich), 1X of β‐mercaptoethanol and 1% penicillin/streptomycin (Gibco). Fresh medium was added into the plates every 3–4 days. The number of spheres (diameter > 50 µm) was evaluated under microscope on days 7–10. Sphere formation was calculated as the number of spheres divided by the original number of cells seeded and normalized to control.

[3] = system: MCF‐7 cells (exosomal markers); experiment: Western blot of exosomal fractions (exosome cargo); type: cell-based; conditions: CAY10594 10 µM, 16 h
Method: For comparative analyses, exosome‐enriched fractions were collected from equivalent amounts of culture medium, conditioned by equivalent amounts of cells. MCF‐7 cells were treated with indicated compounds or with DMSO 0.2% as control, in medium containing exosome‐depleted FCS (10%). After 16 h, cell media were collected and exosomes were isolated by three sequential centrifugation steps at 4 °C: 10 min at 500 × g, to remove cells; 30 min at 10,000 × g, to remove cell debris; and 1h30min at 100,000 × g, to pellet exosomes (exosome‐enriched fraction), followed by one wash with 1400 µl of PBS1X (100,000 × g, 1 h), to remove soluble serum and secreted proteins. Exosomal pellets were then re‐suspended in 100 µl of PBS1X. The lysates from corresponding cultures were cleared by centrifugation at 1500 rpm for 5 min and then resuspended in lysis buffer (TrisHCL pH 7.4 30 mM, NaCl 150 mM, 1% NP40 (IGEPAL), 1 µg/ml aprotinin, 1 µg/ml leupeptin). Although only little variations were observed from sample to sample, exosomal amounts loaded for the western blot were normalized according to the number of parent cells from where exosomes were secreted.
The proteins were heat‐denaturated in Laemmli sample buffer, fractionated in 12.5% or 15% gels by SDS–PAGE and electro‐transferred to nitrocellulose membrane. Membranes were stained with Ponceau red and immunoblotted with the indicated primary antibodies for: CD9 (1/5000), CD63 (1/5000), CD81 (1/5000) and ADAM10 (1/1000) antibodies provided by E. Rubinstein (Charrin et al., 2001) (Université Paris‐Sud UMRS_935, Villejuif); syntenin (Homemade (Kashyap et al., 2015); 1/3000), Tubulin (Sigma‐Aldrich; 1/10,000), ALIX (Homemade (Baietti et al., 2012); 1/500), HSP70 (Santa Cruz Biotechnology; 1/500), Flotillin‐1 (BD Biosciences; 1/1000), EGFR (Cell Signaling; 1/1000), EpCAM (Santa Cruz Biotechnology; 1/200), Fibronectin (BD Biosciences; 1/5000), Src (Cell signaling; 1/1000), TSP1 (Lab Vision; 1/100), SDC1 intracellular domain (Homemade (Baietti et al., 2012); 1/1000), SDC4 intracellular domain (Abnova; 1/2000), and HRP‐conjugated secondary antibodies (Mouse or Rabbit, Thermofisher scientific; 1/10,000). Signals were visualized using Amersham ECL Prime Western Blotting Detection Reagent (GE Healthcare).

[4] = Chemical solubility and stability in PBS; type: physicochemical; conditions: aqueous buffer; PBS pH 7.4 22°C

Structure (SMILES)	binding to GRASP55‐PDZ tandem (GRASP55‐PDZ tandem)	toxicity (cell viability) (MCF‐7 SyntKO cells [1])	mammosphere formation (MCF‐7 SyntKO cells [2])	exosomal ADAM10 signal ([3]; SyntOFF 100 µM)	exosomal CD81 ([3]; SyntOFF 100 µM)	exosomal EGFR signal ([3]; SyntOFF 100 µM)	exosomal TSP1 signal ([3]; SyntOFF 100 µM)	exosomal fibronectin signal ([3]; SyntOFF 100 µM)	incorporation of EpCAM into exosomes ([3]; SyntOFF 100 µM)	incorporation of c‐Src into exosomes ([3]; SyntOFF 100 µM)	amount of exosomal ALIX ([3]; cSyntOFF, C58, SyntOFF 100 µM)	amount of exosomal SDC4 C‐terminal fragment (CTF) ([3]; cSyntOFF, C58, SyntOFF 100 µM)	amount of exosomal syntenin ([3]; cSyntOFF, C58, SyntOFF 100 µM)	solubility [4] [µg/mL]
CC(C)[C@H](NC(=O)CSc1ccc(Cl)cc1)C(=O)O [Compound C58]	no binding	not toxic												
CC(C)[C@H](NC(=O)CCSc1ccc(Cl)cc1)C(=O)O [SyntOFF, (S)‐2‐(3‐(4‐chlorophenylthio)propanamido)‐3‐methylbutanoic acid]			no effect	unaffected	that was not the case	unaffected	unaffected	unaffected	markedly decrease	markedly decrease	significantly decreased	significantly decreased	significantly decreased	> 2300
